The results in this text go back to US9902986B2, “Enterobactin conjugates and uses thereof” (Massachusetts Institute of Technology, priority 2013, dated 2018).

One assay has as its system E. coli K-12. Description: Antimicrobial activity assay, E. coli K-12. In kind it is cell-based, Escherichia coli. The conditions noted are these: for concentrations at which E. coli K-12 was inhibited: inhibition attributed to iron deprivation. On the procedure: (§1) Overnight cultures of the bacterial strains were prepared by inoculating 5 mL of LB with the bacterial freezer stocks and the cultures were incubated at 37° C. in a tabletop incubator shaker set at 150 rpm. The overnight culture grew to saturation and was diluted 1:100 into 5 mL of fresh LB medium containing DP (200 μM) and incubated at 37° C. with shaking at 150 rpm until OD600 reached 0.6. The cultures were subsequently diluted to an OD600 value of 0.001 in 50% MHB medium (11.5 g/L) with or without DP (200 μM). No antibiotic marker was included in these cultures. A 90-μL aliquot of the diluted culture was combined with a 10-μL aliquot of a 10× solution of the tested compounds in a 96-well plate, which was wrapped in […] and incubated at 30° C. with shaking at 150 rpm for 19 h. Bacterial growth was determined by measuring OD600 using a BIOTEK SYNERGY HT plate reader. Each well condition was prepared in duplicate, and at least three independent replicates were conducted on different days. The resulting mean OD600 are reported and the error bars are the standard deviation.
In an exemplary experiment, antibacterial activities of the conjugates were tested against E. coli K-12 in 50% MHB at 30° C., t=19 h. 2,2′-dipyridyl (DP, 200 μM) was added to provide conditions of iron limitation.

In assay [1] the test system is E. coli CFT073. Description: Antimicrobial activity assay, E. coli CFT073. In kind it is cell-based, Escherichia coli. The conditions noted are these: for concentration providing complete growth inhibition: 200 μM DP (iron-deficient); for effect of preloading Fe(III) on antibacterial activity: Fe(III)-loaded versus apo conjugates. On the procedure:
as §1
In another exemplary experiment, antibacterial activities of the conjugates were tested against E. coli CFT073 in 50% MHB at 30° C., t=19 h. DP (200 μM) was added to provide conditions of iron limitation.
In another exemplary experiment, antibacterial activities of Fe(III)-loaded or apo Ent-β-lactam conjugates (Ent-Amp and Ent-Amx) and their glucosylated derivatives (MGE-Amp, MGE-Amx, DGE-Amp, and DGE-Amx) against the uropathogenic strain E. coli CFT073 were tested in 50% MHB, 30° C., t=19 h. 2,2′-dipyridyl (DP, 200 μM) was added to provide conditions of iron limitation.

The test system of the next assay is various E. coli strains. The assay can be described thus: Antibacterial activity against a panel of E. coli strains. In kind it is cell-based, Escherichia coli. The following applies: 6 strains of E. coli (K-12, B, H9049, 25922, UTI89, CFT073). How it is done:
as §1
Ampicillin and amoxicillin are β-lactam antibiotics that have periplasmic targets in Gram-negative bacteria and inhibit cell wall biosynthesis. The antibacterial activity of Ent-ampicillin and Ent-amoxicillin conjugates 44 and 45 was evaluated in vitro against a panel of Gram-negative and positive-bacteria.
Select Ent-β-lactam conjugates (Ent-Amp and Ent-Amx) and their glucosylated derivatives (MGE-Amp, MGE-Amx, DGE-Amp, and DGE-Amx) were tested against 6 strains of E. coli. Four of them are non-pathogenic strains, namely K-12, B, H9049, and 25922, and the other two are uropathogenic clinical isolates, namely UTI89 and CFT073.

The test system of assay [2] is Salmonella enterica serovar Typhimurium (STM) IR715. Description: Antibacterial activity assay, Salmonella Typhimurium. In kind it is cell-based. The following applies: 50% MHB, 100 μM 2,2′-dipyridyl, 30° C., t=19 h. On the procedure:
FIGS. 12A and 12B show exemplary antibacterial activities of Ent-Amp, Ent-Amx, MGE-Amp, MGE-Amx, DGE-Amp, and DGE-Amx against Salmonella enterica serovar Typhimurium (STM) IR715 (50% MHB with 100 μM 2,2′-dipyridyl to provide conditions of iron limitation, 30° C., t=19 h). (FIG. 12A) Antibacterial activity of Amp and the Amp-containing conjugates (Ent-Amp, MGE-Amp, and DGE-Amp). […] (FIG. 12B) Antibacterial activity of Amx and the Amx-containing conjugates (Ent-Amx, MGE-Amx, and DGE-Amx).

For assay [3], the system named is E. coli CFT073. The assay can be described thus: Competition assay with native siderophores, E. coli CFT073. In kind it is cell-based, Escherichia coli. The conditions noted are these: conjugate 100 nM, varied Ent, MGE or DGE, 50% MHB, 200 μM DP, 30° C., t=19 h. How it is done:
These assays were performed following the general procedure described herein except that varying concentrations of Ent, MGE, or DGE, each of which was unmodified, were mixed with Ent-Amp, Ent-Amx, MGE-Amp, MGE-Amx, DGE-Amp, or DGE-Amx. Ent was synthesized following a literature procedure^55 and stored as DMSO stock solution at −20° C. MGE and DGE were prepared from Ent using MceC and IroB as described for MGE-PEG3-N3 and DGE-PEG3-N3.
In another exemplary experiment, select conjugates (Ent-Amp, MGE-Amp, and DGE-Amp) with select native siderophores (Ent, MGE, and DGE) were tested against the uropathogenic strain E. coli CFT073 in 50% MHB, t=19 h, 30° C. 2,2′-dipyridyl (DP, 200 μM) was added to provide conditions of iron limitation. The concentration of the conjugates was fixed at 100 nM and the concentration of the native siderophores was varied.
In another exemplary experiment, select conjugates (Ent-Amx, MGE-Amx, and DGE-Amx) with select native siderophores (Ent, MGE, and DGE) were tested against the uropathogenic strain E. coli CFT073 in 50% MHB, t=19 h, 30° C. DP (200 μM) was added to provide conditions of iron limitation. The concentration of the conjugates was fixed at 100 nM and the concentration of the native siderophores was varied.

For another assay, the system named is S. aureus ATCC 25923. The assay can be described thus: Antibacterial activity assay, S. aureus. The following applies: iron limitation (200 μM 2,2′-dipyridyl). In kind it is cell-based, Staphylococcus aureus. How it is done:
No antibiotic marker was included in these cultures. […] Bacterial growth was determined by measuring OD600 using a BIOTEK SYNERGY HT plate reader. Each well condition was prepared in duplicate, and at least three independent replicates were conducted on different days. The resulting mean OD600 are reported and the error bars are the standard deviation.
Ampicillin and amoxicillin are β-lactam antibiotics that have periplasmic targets in Gram-negative bacteria and inhibit cell wall biosynthesis. The antibacterial activity of Ent-ampicillin and Ent-amoxicillin conjugates 44 and 45 was evaluated in vitro against a panel of Gram-negative and positive-bacteria. FIG. 6 provides exemplary results from antibacterial activity assays against select bacterial species that include non-pathogenic and pathogenic E. coli strains and also Staphylococcus aureus. Under conditions of iron limitation (200 μM 2,2′-dipyridyl), the conjugates provide 100- to 1000-fold improved activity against various E. coli strains, including human pathogens, compared to the unmodified antibiotics.

Setting [4] is: 50% MHB, 200 μM DP, 30° C., t=19 h.

As to `CC1(C)SC2C(NC(=O)C(NC(=O)CCCc3cn(CCOCCOCCOCCNC(=O)c4cc(O)c(O)c(C(=O)NC5COC(=O)C(NC(=O)c6cc(C7OC(CO)C(O)C(O)C7O)cc(O)c6O)COC(=O)C(NC(=O)c6cc(C7OC(CO)C(O)C(O)C7O)cc(O)c6O)COC5=O)c4)nn3)c3ccccc3)C(=O)N2C1C(=O)O` (stereo not drawn) [DGE-Amp], in the assay on E. coli K-12 (setting [4]), the “antibacterial activity at 100 nM” value is “inactive” and the “concentration at which growth inhibition was observed (attributed to iron deprivation)” value worked out at 10 µM. In addition, the “concentrations at which E. coli K-12 was inhibited” value in the assay on E. coli K-12 is recorded as “micromolar concentrations”. Moreover, the “concentration providing complete growth inhibition” value in the assay with E. coli CFT073 [1] (50% MHB, 30° C., t=19 h) is on record as 10 nM. The “improved antibacterial activity against E. coli CFT073 over E. coli K-12” value in the assay on E. coli CFT073 [1] (CFT073 (FepA and IroN) versus K-12 (FepA only)) was determined as 100 fold. Also, in the assay with E. coli CFT073 [1] (setting [4]), the “effect of preloading Fe(III) on antibacterial activity” value (“effect of preloading Fe(III)” for short) was “no effect”. In addition, the “antibacterial activity against uropathogenic compared to non-pathogenic E. coli” value with various E. coli strains is recorded as “greater antibacterial activity against the uropathogenic E. coli compared to non-pathogenic E. coli”. Besides, the “antibacterial activity relative to the unmodified antibiotic” value in assay [2] was “enhanced antibacterial activity relative to unmodified Amp”. The “attenuation of antibacterial activity by native siderophores” value (from here on “attenuation of antibacterial activity”) in the assay with E. coli CFT073 [3] is “attenuated by Ent, MGE, and DGE”.
Regarding `CC1(C)SC2C(NC(=O)C(NC(=O)CCCc3cn(CCOCCOCCOCCNC(=O)c4cc(O)c(O)c(C(=O)NC5COC(=O)C(NC(=O)c6cccc(O)c6O)COC(=O)C(NC(=O)c6cccc(O)c6O)COC5=O)c4)nn3)c3ccc(O)cc3)C(=O)N2C1C(=O)O` (stereo not drawn) [Ent-Amx], in the assay on E. coli CFT073 [1] (setting [4]), the “effect of preloading Fe(III)” value was “no effect”. Moreover, the “antibacterial activity relative to the unmodified antibiotic” value in assay [2] is reported as “enhanced antibacterial activity relative to unmodified Amx”. In addition, in the assay with S. aureus ATCC 25923, the “enhancement of activity compared to the unmodified antibiotics” value is on record as “no enhancement of activity”. The “attenuation of antibacterial activity” value in the assay with E. coli CFT073 [3] is “only attenuated in the presence of Ent or MGE”.
As for `CC1(C)SC2C(NC(=O)C(NC(=O)CCCc3cn(CCOCCOCCOCCNC(=O)c4cc(O)c(O)c(C(=O)NC5COC(=O)C(NC(=O)c6cccc(O)c6O)COC(=O)C(NC(=O)c6cccc(O)c6O)COC5=O)c4)nn3)c3ccccc3)C(=O)N2C1C(=O)O` (stereo not drawn) [Ent-Amp], the “concentration providing complete growth inhibition” value in the assay with E. coli K-12 (50% MHB, 200 μM DP (iron-deficient), 30° C., t=19 h) is recorded as 100 nM. In the assay on E. coli CFT073 [1] (10 nM, 50% MHB, 200 μM DP, 30° C., t=19 h), the “antibacterial activity at 10 nM” value is listed as “slightly less active”. Further, the “effect of preloading Fe(III)” value in the assay with E. coli CFT073 [1] (setting [4]) is listed as “no effect”. Besides, the “antibacterial activity relative to the unmodified antibiotic” value in assay [2] was “enhanced antibacterial activity relative to unmodified Amp”. Also, in the assay on S. aureus ATCC 25923, the “enhancement of activity compared to the unmodified antibiotics” value was “no enhancement of activity”. Moreover, in the assay on E. coli CFT073 [3], the “attenuation of antibacterial activity” value is “only attenuated in the presence of Ent and MGE”.
For the compound `CC1(C)SC2C(NC(=O)C(NC(=O)CCCc3cn(CCOCCOCCOCCNC(=O)c4cc(O)c(O)c(C(=O)NC5COC(=O)C(NC(=O)c6cc(C7OC(CO)C(O)C(O)C7O)cc(O)c6O)COC(=O)C(NC(=O)c6cccc(O)c6O)COC5=O)c4)nn3)c3ccccc3)C(=O)N2C1C(=O)O` (stereo not drawn) [MGE-Amp], in the assay on E. coli K-12 (setting [4]), the “antibacterial activity at 100 nM” value is “inactive” and the “antibacterial activity, comparison” value was “more active against the bacteria than DGE-Amp”. Also, in the assay with E. coli K-12, the “concentrations at which E. coli K-12 was inhibited” value was “micromolar concentrations”. Further, in the assay with E. coli CFT073 [1] (50% MHB, 30° C., t=19 h), the “concentration providing complete growth inhibition” value is on record as 10 nM. Further, the “effect of preloading Fe(III)” value in the assay with E. coli CFT073 [1] (setting [4]) was “no effect”. The “antibacterial activity against uropathogenic compared to non-pathogenic E. coli” value with various E. coli strains is listed as “greater antibacterial activity against the uropathogenic E. coli compared to non-pathogenic E. coli”. In addition, the “antibacterial activity relative to the unmodified antibiotic” value in assay [2] was “enhanced antibacterial activity relative to unmodified Amp”. Moreover, the “attenuation of antibacterial activity” value with E. coli CFT073 [3] was “attenuated by Ent, MGE, and DGE”.
